The assay deals with T1, ovalbumin (OVA) (Gallus gallus, UniProt P01012).
T1 construct: gene SERPINB14; amine-coupled to CM5 chip
T1 sequence (P01012 2-386): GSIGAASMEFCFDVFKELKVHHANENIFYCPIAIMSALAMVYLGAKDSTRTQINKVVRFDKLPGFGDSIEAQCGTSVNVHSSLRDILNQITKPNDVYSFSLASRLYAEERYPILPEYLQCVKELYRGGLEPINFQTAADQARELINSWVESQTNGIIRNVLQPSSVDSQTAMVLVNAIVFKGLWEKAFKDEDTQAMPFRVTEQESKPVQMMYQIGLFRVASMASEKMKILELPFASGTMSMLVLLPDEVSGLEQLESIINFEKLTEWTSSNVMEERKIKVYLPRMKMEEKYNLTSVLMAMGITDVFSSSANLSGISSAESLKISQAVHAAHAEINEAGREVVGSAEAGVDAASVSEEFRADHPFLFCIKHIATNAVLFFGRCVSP
In words: SPR, Biacore […]. It counts as binding. On the technique in general: SPR reads the build-up and loss of mass on a sensor chip optically.

Consider one compound from article PMC5872666, “Stimulation of Dectin-1 and Dectin-2 during Parenteral Immunization, but Not Mincle, Induces Secretory IgA in Intestinal Mucosa” (Journal of Immunology Research, 2018).

By Kd is commonly meant the free concentration of one partner at which half of the binding sites on the other are occupied at equilibrium, for simple one-to-one binding. Compound `CCCCCCCCCCCCCCCCCCCCCC(=O)OC[C@H]1O[C@H](O[C@H]2O[C@H](COC(=O)CCCCCCCCCCCCCCCCCCCCC)[C@@H](O)[C@H](O)[C@H]2O)[C@H](O)[C@@H](O)[C@@H]1O` [TDB] displayed a Kd of 0.235 nM.
